Experimental data as given in ChEMBL document CHEMBL4765227, “Hit to lead optimization of a series of N-[4-(1,3-benzothiazol-2-yl)phenyl]acetamides as monoacylglycerol lipase inhibitors with potential anticancer activity” (Eur J Med Chem, 2016).

Assays:
Format in all cases: functional
Details in all cases: read-out: GI
[1] = system: DU-145; assay: Growth inhibition of human DU-145 cells at 10 uM incubated for 48 hrs by sulforhodamine B assay relative to control
[2] = system: IGROV-1; assay: Growth inhibition of human IGROV-1 cells at 10 uM incubated for 48 hrs by sulforhodamine B assay relative to control
[3] = system: HOP-92; assay: Growth inhibition of human HOP-92 cells at 10 uM incubated for 48 hrs by sulforhodamine B assay relative to control
[4] = system: NCI-H322M; assay: Growth inhibition of human NCI-H322M cells at 10 uM incubated for 48 hrs by sulforhodamine B assay relative to control
[5] = system: NCI-H460; assay: Growth inhibition of human NCI-H460 cells at 10 uM incubated for 48 hrs by sulforhodamine B assay relative to control
[6] = system: RPMI-8226; assay: Growth inhibition of human RPMI-8226 cells at 10 uM incubated for 48 hrs by sulforhodamine B assay relative to control
[7] = system: A549; assay: Growth inhibition of human A549/ATCC cells at 10 uM incubated for 48 hrs by sulforhodamine B assay relative to control
[8] = system: HCC 2998; assay: Growth inhibition of human HCC 2998 cells at 10 uM incubated for 48 hrs by sulforhodamine B assay relative to control
[9] = system: HCT-116; assay: Growth inhibition of human HCT-116 cells at 10 uM incubated for 48 hrs by sulforhodamine B assay relative to control
[10] = system: SK-MEL-5; assay: Growth inhibition of human SK-MEL-5 cells at 10 uM incubated for 48 hrs by sulforhodamine B assay relative to control
[11] = system: NCI-H23; assay: Growth inhibition of human NCI-H23 cells at 10 uM incubated for 48 hrs by sulforhodamine B assay relative to control
[12] = system: TK-10; assay: Growth inhibition of human TK-10 cells at 10 uM incubated for 48 hrs by sulforhodamine B assay relative to control
[13] = system: OVCAR-5; assay: Growth inhibition of human OVCAR-5 cells at 10 uM incubated for 48 hrs by sulforhodamine B assay relative to control
[14] = system: SK-OV-3; assay: Growth inhibition of human SK-OV-3 cells at 10 uM incubated for 48 hrs by sulforhodamine B assay relative to control
[15] = system: 786-0; assay: Growth inhibition of human 786-0 cells at 10 uM incubated for 48 hrs by sulforhodamine B assay relative to control
[16] = system: CAKI-1; assay: Growth inhibition of human CAKI-1 cells at 10 uM incubated for 48 hrs by sulforhodamine B assay relative to control
[17] = system: MDA-MB-435; assay: Growth inhibition of human MDA-MB-435 cells at 10 uM incubated for 48 hrs by sulforhodamine B assay relative to control
[18] = system: UACC-62; assay: Growth inhibition of human UACC-62 cells at 10 uM incubated for 48 hrs by sulforhodamine B assay relative to control
[19] = system: SNB-75; assay: Growth inhibition of human SNB-75 cells at 10 uM incubated for 48 hrs by sulforhodamine B assay relative to control
[20] = system: NCI-H226; assay: Growth inhibition of human NCI-H226 cells at 10 uM incubated for 48 hrs by sulforhodamine B assay relative to control
[21] = system: CCRF-CEM; assay: Growth inhibition of human CCRF-CEM cells at 10 uM incubated for 48 hrs by sulforhodamine B assay relative to control
[22] = system: SK-MEL-28; assay: Growth inhibition of human SK-MEL-28 cells at 10 uM incubated for 48 hrs by sulforhodamine B assay relative to control
[23] = system: T47D; assay: Growth inhibition of human T47D cells at 10 uM incubated for 48 hrs by sulforhodamine B assay relative to control
[24] = system: NCI-H522; assay: Growth inhibition of human NCI-H522 cells at 10 uM incubated for 48 hrs by sulforhodamine B assay relative to control
[25] = system: MDA-MB-231; assay: Growth inhibition of human MDA-MB-231 cells at 10 uM incubated for 48 hrs by sulforhodamine B assay relative to control
[26] = system: UACC-257; assay: Growth inhibition of human UACC-257 cells at 10 uM incubated for 48 hrs by sulforhodamine B assay relative to control
[27] = system: RXF 393; assay: Growth inhibition of human RXF 393 cells at 10 uM incubated for 48 hrs by sulforhodamine B assay relative to control
[28] = system: KM12; assay: Growth inhibition of human KM12 cells at 10 uM incubated for 48 hrs by sulforhodamine B assay relative to control
[29] = system: HCT-15; assay: Growth inhibition of human HCT-15 cells at 10 uM incubated for 48 hrs by sulforhodamine B assay relative to control
[30] = system: HT-29; assay: Growth inhibition of human HT-29 cells at 10 uM incubated for 48 hrs by sulforhodamine B assay relative to control
[31] = system: NCI/ADR-RES; assay: Growth inhibition of human NCI/ADR-RES cells at 10 uM incubated for 48 hrs by sulforhodamine B assay relative to control
[32] = system: SW-620; assay: Growth inhibition of human SW-620 cells at 10 uM incubated for 48 hrs by sulforhodamine B assay relative to control
[33] = system: OVCAR-3; assay: Growth inhibition of human OVCAR-3 cells at 10 uM incubated for 48 hrs by sulforhodamine B assay relative to control
[34] = system: Malme-3M; assay: Growth inhibition of human Malme-3M cells at 10 uM incubated for 48 hrs by sulforhodamine B assay relative to control
[35] = system: COLO 205; assay: Growth inhibition of human COLO 205 cells at 10 uM incubated for 48 hrs by sulforhodamine B assay relative to control
[36] = system: SF-268; assay: Growth inhibition of human SF-268 cells at 10 uM incubated for 48 hrs by sulforhodamine B assay relative to control
[37] = system: ACHN; assay: Growth inhibition of human ACHN cells at 10 uM incubated for 48 hrs by sulforhodamine B assay relative to control
[38] = system: BT-549; assay: Growth inhibition of human BT-549 cells at 10 uM incubated for 48 hrs by sulforhodamine B assay relative to control
[39] = system: K562; assay: Growth inhibition of human K562 cells at 10 uM incubated for 48 hrs by sulforhodamine B assay relative to control
[40] = system: MCF7; assay: Growth inhibition of human MCF7 cells at 10 uM incubated for 48 hrs by sulforhodamine B assay relative to control
[41] = system: LOX IMVI; assay: Growth inhibition of human LOX IMVI cells at 10 uM incubated for 48 hrs by sulforhodamine B assay relative to control
[42] = system: OVCAR-4; assay: Growth inhibition of human OVCAR-4 cells at 10 uM incubated for 48 hrs by sulforhodamine B assay relative to control
[43] = system: SNB-19; assay: Growth inhibition of human SNB-19 cells at 10 uM incubated for 48 hrs by sulforhodamine B assay relative to control
[44] = system: M14; assay: Growth inhibition of human M14 cells at 10 uM incubated for 48 hrs by sulforhodamine B assay relative to control

In the case of `CN1CCN(CC(=O)Nc2ccc(-c3nc4ccccc4s3)cc2)CC1`, the inhibition of growth at 10 µM [1] is reported as 14.8%, the inhibition of growth at 10 µM [2] is reported as 19.4% and the inhibition of growth at 10 µM [3] is reported as 64.3%. The inhibition of growth at 10 µM [4] was 22.1%, the inhibition of growth at 10 µM [5] was 15.3% and the inhibition of growth at 10 µM [6] was 11.9%. The inhibition of growth at 10 µM [7] was 11.4%, the inhibition of growth at 10 µM [8] was 22.7% and the inhibition of growth at 10 µM [9] was 29.1%. It also gave an inhibition of growth at 10 µM [10] of 26.3%, an inhibition of growth at 10 µM [11] of 17.8% and an inhibition of growth at 10 µM [12] of 5.2%. It also gave an inhibition of growth at 10 µM [13] of 27.1%, an inhibition of growth at 10 µM [14] of 5.77% and an inhibition of growth at 10 µM [15] of 21.3%. For the same compound, the inhibition of growth at 10 µM [16] was 26.5%, the inhibition of growth at 10 µM [17] was 74.6% and the inhibition of growth at 10 µM [18] was 136%. The inhibition of growth at 10 µM [19] was 26.9%, the inhibition of growth at 10 µM [20] was 3.83% and the inhibition of growth at 10 µM [21] was 36.3%. It also gave an inhibition of growth at 10 µM [22] of 66.2%, an inhibition of growth at 10 µM [23] of 45.9% and an inhibition of growth at 10 µM [24] of 41.1%. The inhibition of growth at 10 µM [25] was 40.2%, the inhibition of growth at 10 µM [26] was -5.35% and the inhibition of growth at 10 µM [27] was 45.7%. For the same compound, the inhibition of growth at 10 µM [28] was 14.4%, the inhibition of growth at 10 µM [29] was 47.1% and the inhibition of growth at 10 µM [30] was 60.4%. For the same compound, the inhibition of growth at 10 µM [31] was 14.4%, the inhibition of growth at 10 µM [32] was -2.26% and the inhibition of growth at 10 µM [33] was 0.78%. For the same compound, the inhibition of growth at 10 µM [34] was 1.71%, the inhibition of growth at 10 µM [35] was 60.3% and the inhibition of growth at 10 µM [36] was 17%. For the same compound, the inhibition of growth at 10 µM [37] was 28.8%, the inhibition of growth at 10 µM [38] was 19.4% and the inhibition of growth at 10 µM [39] was 58.2%. It also gave an inhibition of growth at 10 µM [40] of 63.2%, an inhibition of growth at 10 µM [41] of 134% and an inhibition of growth at 10 µM [42] of 12.7%. The inhibition of growth at 10 µM [43] was 10.3% and the inhibition of growth at 10 µM [44] was 32.4%.
`O=C(CNc1ccccc1)Nc1ccc(-c2nc3ccccc3s2)cc1` gave an inhibition of growth at 10 µM [1] of 3.91%, an inhibition of growth at 10 µM [2] of 16.1% and an inhibition of growth at 10 µM [3] of 3.37%. For the same compound, the inhibition of growth at 10 µM [4] was 12.9%, the inhibition of growth at 10 µM [5] was 0.08% and the inhibition of growth at 10 µM [6] was 12.5%. It also gave an inhibition of growth at 10 µM [7] of 9.72%, an inhibition of growth at 10 µM [8] of -16% and an inhibition of growth at 10 µM [9] of 29.7%. It also gave an inhibition of growth at 10 µM [10] of 22%, an inhibition of growth at 10 µM [11] of 11.9% and an inhibition of growth at 10 µM [12] of -17.9%. It also gave an inhibition of growth at 10 µM [13] of -10.9%, an inhibition of growth at 10 µM [14] of -24.1% and an inhibition of growth at 10 µM [15] of 15.4%. It also gave an inhibition of growth at 10 µM [16] of 1.16%, an inhibition of growth at 10 µM [17] of 12.6% and an inhibition of growth at 10 µM [18] of 23.5%. It also gave an inhibition of growth at 10 µM [19] of 17.4%, an inhibition of growth at 10 µM [20] of 5.83% and an inhibition of growth at 10 µM [21] of 74.3%. For the same compound, the inhibition of growth at 10 µM [22] was 3.37%, the inhibition of growth at 10 µM [23] was 21.4% and the inhibition of growth at 10 µM [24] was 26%. The inhibition of growth at 10 µM [25] was -0.13%, the inhibition of growth at 10 µM [26] was -1.98% and the inhibition of growth at 10 µM [27] was 5.43%. It also gave an inhibition of growth at 10 µM [28] of 5.48%, an inhibition of growth at 10 µM [29] of 29.6% and an inhibition of growth at 10 µM [30] of 2%. It also gave an inhibition of growth at 10 µM [31] of 1.75%, an inhibition of growth at 10 µM [32] of -6.41% and an inhibition of growth at 10 µM [33] of 5.15%. The inhibition of growth at 10 µM [34] was 4.9%, the inhibition of growth at 10 µM [35] was -11.2% and the inhibition of growth at 10 µM [36] was 12.1%. The inhibition of growth at 10 µM [37] was -2.46%, the inhibition of growth at 10 µM [38] was 43.5% and the inhibition of growth at 10 µM [39] was 22.5%. For the same compound, the inhibition of growth at 10 µM [40] was 53.2%, the inhibition of growth at 10 µM [41] was 55.4% and the inhibition of growth at 10 µM [42] was 15.3%. For the same compound, the inhibition of growth at 10 µM [43] was 8.22% and the inhibition of growth at 10 µM [44] was 12.9%.
